The target in this assay is T1, α-amylase from hog pancreas (Sus scrofa, UniProt P00690).
T1 construct: α-amylase from hog pancreas (50 U/mg); from tissue; host or cells: hog pancreas
T1 sequence (P00690 16-511): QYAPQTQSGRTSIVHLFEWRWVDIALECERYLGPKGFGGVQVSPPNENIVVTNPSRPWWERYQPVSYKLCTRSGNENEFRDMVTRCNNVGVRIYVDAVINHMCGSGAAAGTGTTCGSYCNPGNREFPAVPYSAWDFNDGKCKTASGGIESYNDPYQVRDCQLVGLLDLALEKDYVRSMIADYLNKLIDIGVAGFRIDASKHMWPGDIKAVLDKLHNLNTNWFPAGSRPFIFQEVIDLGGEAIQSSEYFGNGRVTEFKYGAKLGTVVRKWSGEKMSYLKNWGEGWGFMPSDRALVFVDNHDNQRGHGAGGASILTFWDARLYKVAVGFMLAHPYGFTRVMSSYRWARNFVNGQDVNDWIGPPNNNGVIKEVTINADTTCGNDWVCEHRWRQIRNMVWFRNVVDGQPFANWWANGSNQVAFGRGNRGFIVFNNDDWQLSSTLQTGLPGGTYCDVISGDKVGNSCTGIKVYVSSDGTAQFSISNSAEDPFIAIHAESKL
In words: α-amylase inhibitory activity (starch, DNS) and kinetics. It counts as biochemical. On the procedure:
For all inhibitory activity, IC50 was calculated. […] The IC50 value was calculated from the plotted graph of the inhibition activity for the five different peptide concentrations. […] To measure the α-amylase inhibitory activity, a mixture of 25 μL of α-amylase solution and 25 μL of sample was first incubated at 40 °C for 5 min. Then, 50 μL of 1% (w/v) soluble starch (dissolved in 100 mM phosphate buffer containing 6 mM NaCl, pH 7) was added. After 10 min, the reaction was stopped by adding 100 μL of 3,5-dinitrosalicylic acid (DNS) and heating for 10 min. Then, the mixture was made up to 300 μL with double distilled water. After that, the absorbance at 540 nm was measured using BioTek Microplate Readers (EpochTM 2 BioTek, Bad Friedrichshall, Germany). The final results were compared with the activity of the same amount of enzyme without the inhibitor. All assays were carried out in triplicate. For IC50 value determination, the inhibitory activity for […] of samples was investigated. […] The kinetic parameters were evaluated by Lineweaver-Burk's method. The reaction conditions were the same as in the enzyme inhibitory activity assay.

No end group written: not given here.

GNPVGGVGHGTTGT [GT-14, GNPVGGVGHGTTGT] gave an IC50 of 50 µM. This counts as double-digit micromolar.

The sequence YGNPVGGVGH [YH-10, YGNPVGGVGH] had an IC50 of 80.3 µM.

With “GEHGGAGMGGGQFQPV [GV-16, GEHGGAGMGGGQFQPV]”, the midpoint of inhibition, the IC50, lay at 44.6 µM.

EQGFLPGPEESGR [ER-13, EQGFLPGPEESGR] gave an IC50 of 51.1 µM.

For the sequence GQLGEHGGAGMG [GG-12, GQLGEHGGAGMG], the IC50 is 53 µM.

For the sequence RLARAGLAQ [RQ-9, RLARAGLAQ], the IC50 is 69.9 µM.

These data come from article PMC7321301, “Characteristics of New Peptides GQLGEHGGAGMG, GEHGGAGMGGGQFQPV, EQGFLPGPEESGR, RLARAGLAQ, YGNPVGGVGH, and GNPVGGVGHGTTGT as Inhibitors of Enzymes Involved in Metabolic Syndrome and Antimicrobial Potential” (Molecules, 2020).
